According to article PMC8760230, “Translational Development of a Zr-89-Labeled Inhibitor of Prostate-specific Membrane Antigen for PET Imaging in Prostate Cancer” (Molecular Imaging and Biology, 2021):
Values joined by “and” are separate entries in the source; they are usually repeats but may differ in a detail not shown here. Identical values can stand only once. “Also recorded” adds a separate entry of the source. Like-named read-outs stand apart in the source and are kept apart here.

How the values were obtained:
LNCaP cells [1] = experiment: Internalization in LNCaP cells; assay type: cell-based; conditions: n=3
Experimental: (§1) The cell binding determined in these experiments is the sum of specific and nonspecific cell binding. To determine the values for nonspecific cell binding and internalization, all experiments were additionally performed in the presence of 2-PMPA.
(§2) The plates were incubated for 1 h; after which, 0.75 pmol of the radiotracer to be examined was added to 1 ml of fresh medium. The cells were incubated for 30 min, 1, 2, 3, and 5 h. At each time point, the supernatant was removed and the cells washed with 1 ml of PBS. To dissociate the receptor-bound radioligand, the cells were washed twice with 1 ml of a 0.1 M glycine buffer solution at pH 2.8 for 5 min. The 0.1 M glycine–HCl buffer dissociated all the surface-bound complexes. The cells were then washed with 1 ml of PBS, and the internalized fraction was determined by solubilizing the cells with 1 ml of 1 M NaOH and incubating them for 10 min at room temperature. The radioactivity collected from the culture medium, 0.1 M glycine (surface-bound), and 1 M NaOH (internalized fraction) was measured in a gamma counter and decay-corrected. Cell binding was calculated from the surface-bound (0.1 M glycine) and the internalized fraction (1 M NaOH). The internalized fraction was expressed as a percentage of cell binding (internalization to cell-bound radioactivity ratio). All cell uptake experiments were run in triplicate.

LNCaP cells [2] = experiment: Cellular uptake (specific cell binding) in LNCaP cells; assay type: cell-based; conditions: n=3
Experimental: as §1, §2

prostate cancer relapse = experiment: First-in-human PET/CT scan in a patient with biochemical recurrence of prostate cancer; conditions: for SUVmax left prostate lobe / SUVmax right prostate lobe: 93 MBq
Experimental: The patient had given their written informed consent for PET imaging and the scientific evaluation of their data. All procedures were performed in accordance with the Institutional Review Board and the regulations of the regional authorities in Cologne. The kidney dose was estimated on the basis of two PET scans. The following assumptions were made for the estimation: Between time 0 (injection) and the first measuring point, the time-activity-curve follows a constant progression. All measuring points were integrated numerically using trapezoidal approximation. From the last measuring point to infinity, a mono-exponential function was fitted and integrated. As the effective half-life could not be accurately determined from two measurement points, the physical half-life of Zr-89 was used instead.

PSMA = molecular target: T1, PSMA (Homo sapiens, UniProt Q04609); experiment: Equilibrium dissociation constant Kd / Bmax, saturation binding on PSMA-positive LNCaP cells; conditions: Scatchard plots
T1 construct: host or cells: LNCaP cells
T1 sequence (Q04609 whole entry): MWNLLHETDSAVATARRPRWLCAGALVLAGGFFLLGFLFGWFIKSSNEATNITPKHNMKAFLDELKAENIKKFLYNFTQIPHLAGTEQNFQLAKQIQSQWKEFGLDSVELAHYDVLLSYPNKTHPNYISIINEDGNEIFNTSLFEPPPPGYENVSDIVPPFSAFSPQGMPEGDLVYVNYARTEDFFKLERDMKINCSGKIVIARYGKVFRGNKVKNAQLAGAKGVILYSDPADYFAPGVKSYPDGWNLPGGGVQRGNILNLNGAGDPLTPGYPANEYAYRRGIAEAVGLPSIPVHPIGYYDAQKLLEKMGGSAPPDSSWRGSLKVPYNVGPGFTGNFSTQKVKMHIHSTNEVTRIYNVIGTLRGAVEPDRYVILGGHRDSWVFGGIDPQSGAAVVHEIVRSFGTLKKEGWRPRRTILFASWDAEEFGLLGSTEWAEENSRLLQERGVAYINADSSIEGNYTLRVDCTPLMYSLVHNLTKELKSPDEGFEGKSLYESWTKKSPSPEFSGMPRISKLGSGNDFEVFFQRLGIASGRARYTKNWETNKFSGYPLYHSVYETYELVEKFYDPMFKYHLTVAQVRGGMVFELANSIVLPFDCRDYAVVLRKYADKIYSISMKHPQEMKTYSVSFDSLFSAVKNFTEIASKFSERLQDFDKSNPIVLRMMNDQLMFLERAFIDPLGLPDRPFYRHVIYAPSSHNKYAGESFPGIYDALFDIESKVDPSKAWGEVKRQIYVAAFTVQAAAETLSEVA
Experimental: The equilibrium dissociation constant describing the interaction of the radiolabeled ligands with the PSMA binding sites was determined in PSMA-positive LNCaP cell lines (Cell Line Service, Eppelheim, Germany). LNCaP cells were seeded at a density of 10^6 cells/well on a 6-well plate (Corning, ME, USA) and incubated under 5% CO2 at 37 °C for 48 h with medium (minimum essential medium Eagle supplemented with 2 mM L-glutamine, 0.1 mM non-essential amino acids (NEAA), 1.0 mM sodium pyruvate, 10% fetal bovine serum, 100 U/ml penicillin, and 100 µg/ml streptomycin) (Lonza, Verviers, Belgium) in a humidified incubator (Thermo Heracell 150 CO2-Incubator, MA, USA). To determine the nonspecific binding, the medium was removed from selected wells, and 1 ml of a solution of 0.1 mM of 2-(phosphonomethyl)-pentanedioic acid (2-PMPA) in fresh medium was added. […] The plates were then incubated under 5% CO2, at 37 °C for 1 h. After that, the medium was removed and the cells incubated under the same incubation conditions for 3 h with different concentrations (0.25 nM, 2.5 nM, 5 nM, 10 nM, 25 nM, 50 nM, and 75 nM) of the radiotracer under investigation in 1 ml fresh medium.
After 3 h, the cells were washed three times with 1 ml PBS, and the cells were finally lysed by adding 1 ml of 1 M NaOH and incubating them for 10 min at room temperature. All samples were measured with a gamma counter (Nuklear Medizintechnik Dresden Isomed 100, Dresden, Germany) and were decay-corrected. The equilibrium dissociation constant (Kd) and the maximum density of receptors (Bmax) were calculated by non-linear regression using GraphPad Prism 8.0.2 (GraphPad Software, San Diego, USA).

LNCaP tumor xenograft = experiment: Small-animal PET in mice bearing an LNCaP tumor xenograft, with and without blocking by 2-PMPA
LNCaP tumor xenografts = conditions: for Tumor/blood ratio / Tumor/kidneys ratio / Tumor/liver ratio / Tumor/muscle ratio: LNCaP xenograft mice; for Biodistribution Blood / Biodistribution Bone / Biodistribution Heart / Biodistribution Intestine / Biodistribution Kidneys / Biodistribution LNCAP-tumor / Biodistribution Liver / Biodistribution Lung / Biodistribution Muscle / Biodistribution Prostate / Biodistribution Spleen / Biodistribution Thyroid: i.v. 30 pmol, n=5

For `CC(=O)N1CCCCCNC(=O)CCC(=O)N2CCCCCNC(=O)CCC(=O)N(CCCCCNC(=O)CCC(=O)NCC3CCC(C(=O)NC(Cc4ccc5ccccc5c4)C(=O)NCCCCC(NC(=O)NC(CCC(=O)O)C(=O)O)C(=O)O)CC3)[O][89Zr+]([O]1)[O]2` (centres unmarked) [[^89Zr]Zr-PSMA-DFO, [^89Zr]Zr-N-sucDf-AMCHA-2Nal-EuK], the “Specific internalized activity as percentage of specific cell-bound activity” value (LNCaP cells [1]; 0.5 h) was 32.7±4.1%, the “Specific internalized activity as percentage of specific cell-bound activity” value (LNCaP cells [1]; 1 h) was 39.8±0.4% and the “Specific internalized activity as percentage of specific cell-bound activity” value (LNCaP cells [1]; 2 h) was 48.0±3.4%. The “Specific internalized activity as percentage of specific cell-bound activity” value (LNCaP cells [1]; 3 h) was 50.0±0.6%, the “Specific internalized activity as percentage of specific cell-bound activity” value (LNCaP cells [1]; 5 h) was 61.7±3.4% and the “Specific binding in LNCaP cells as percentage of total activity” value (LNCaP cells [2]; 0.5 h) was 29.1±2.1%. For the same compound, the “Specific binding in LNCaP cells as percentage of total activity” value (LNCaP cells [2]; 1 h) was 38.5±2.3%, the “Specific binding in LNCaP cells as percentage of total activity” value (LNCaP cells [2]; 2 h) was 46.5±1.3% and the “Specific binding in LNCaP cells as percentage of total activity” value (LNCaP cells [2]; 3 h) was 48.8±1.0%. The “Specific binding in LNCaP cells as percentage of total activity” value (LNCaP cells [2]; 5 h) was 49.4±1.3%, the “Overall effective dose (ICRP 60)” value (prostate cancer relapse) was 0.11 mSv/MBq and the “SUVmax left prostate lobe” value (prostate cancer relapse; 48 h p.i.) was 9.47. The “SUVmax right prostate lobe” value (prostate cancer relapse; 48 h p.i.) was 13.25, the “SUVmax left prostate lobe” value (prostate cancer relapse; 72 h p.i.) was 7.14 and the “SUVmax right prostate lobe” value (prostate cancer relapse; 72 h p.i.) was 13.05. For the same compound, the Kidney dose (prostate cancer relapse; estimated from two PET scans) was 2.8 mGy/MBq, the “Period over which the radioligand was found stable” value (37 °C, PBS and human serum, TLC, HPLC in PBS, listed as Zr-89-radioligand) was 7 days and the “Radiochemical purity remaining on storage” value (storage in aqueous solution for 7 days) was over 99%. The “Bmax (maximum achievable concentration on 10^6 tumor cells)” value (PSMA) was 1428 ± 42 fmol/10^6 cells, the “Visibility of LNCaP tumor xenograft in PET” value (LNCaP tumor xenograft; 48 h p.i., 10 MBq) was “still clearly visible; also recorded: remained clearly visible” and the “Radioactivity in the bladder” value (LNCaP tumor xenograft; mice, 48 h after injection) was “no detectable radioactivity”. The “Share of renal radioactivity due to specific binding” value (LNCaP tumor xenograft; mouse, blocking experiment with 2-PMPA) was “approximately two-thirds”, the Tumor/blood ratio (LNCaP tumor xenografts; 2 h p.i.) was 183 ± 42 and the Tumor/kidneys ratio (LNCaP tumor xenografts; 2 h p.i.) was 0.31 ± 0.06. The Tumor/liver ratio (LNCaP tumor xenografts; 2 h p.i.) was 27.5 ± 3.2, the Tumor/muscle ratio (LNCaP tumor xenografts; 2 h p.i.) was 534 ± 62 and the “Biodistribution Blood” value (LNCaP tumor xenografts; 2 h p.i.) was 0.14 ± 0.02 %ID/g. The “Biodistribution Bone” value (LNCaP tumor xenografts; 2 h p.i.) was 0.15 ± 0.04 %ID/g, the “Biodistribution Heart” value (LNCaP tumor xenografts; 2 h p.i.) was 0.11 ± 0.05 %ID/g and the “Biodistribution Intestine” value (LNCaP tumor xenografts; 2 h p.i.) was 0.65 ± 0.15 %ID/g. For the same compound, the “Biodistribution Kidneys” value (LNCaP tumor xenografts; 2 h p.i.) was 86.7 ± 18.7 %ID/g, the “Biodistribution LNCAP-tumor” value (LNCaP tumor xenografts; 2 h p.i.) was 26.3 ± 5.3 %ID/g and the “Biodistribution Liver” value (LNCaP tumor xenografts; 2 h p.i.) was 0.95 ± 0.15 %ID/g. For the same compound, the “Biodistribution Lung” value (LNCaP tumor xenografts; 2 h p.i.) was 0.5 ± 0.04 %ID/g, the “Biodistribution Muscle” value (LNCaP tumor xenografts; 2 h p.i.) was 0.05 ± 0.02 %ID/g and the “Biodistribution Prostate” value (LNCaP tumor xenografts; 2 h p.i.) was 0.15 ± 0.04 %ID/g. For the same compound, the “Biodistribution Spleen” value (LNCaP tumor xenografts; 2 h p.i.) was 0.49 ± 0.07 %ID/g, the “Biodistribution Thyroid” value (LNCaP tumor xenografts; 2 h p.i.) was 0.18 ± 0.03 %ID/g and the Tumor/blood ratio (LNCaP tumor xenografts; 4 h p.i.) was 180 ± 61. The Tumor/kidneys ratio (LNCaP tumor xenografts; 4 h p.i.) was 0.55 ± 0.01, the Tumor/liver ratio (LNCaP tumor xenografts; 4 h p.i.) was 29.6 ± 5.1 and the Tumor/muscle ratio (LNCaP tumor xenografts; 4 h p.i.) was 297 ± 62. The “Biodistribution Blood” value (LNCaP tumor xenografts; 4 h p.i.) was 0.13 ± 0.04 %ID/g, the “Biodistribution Bone” value (LNCaP tumor xenografts; 4 h p.i.) was 0.13 ± 0.03 %ID/g and the “Biodistribution Heart” value (LNCaP tumor xenografts; 4 h p.i.) was 0.12 ± 0.03 %ID/g. For the same compound, the “Biodistribution Intestine” value (LNCaP tumor xenografts; 4 h p.i.) was 0.54 ± 0.10 %ID/g, the “Biodistribution Kidneys” value (LNCaP tumor xenografts; 4 h p.i.) was 41.3 ± 2.37 %ID/g and the “Biodistribution LNCAP-tumor” value (LNCaP tumor xenografts; 4 h p.i.) was 22.8 ± 1.5 %ID/g. The “Biodistribution Liver” value (LNCaP tumor xenografts; 4 h p.i.) was 0.79 ± 0.17 %ID/g, the “Biodistribution Lung” value (LNCaP tumor xenografts; 4 h p.i.) was 0.12 ± 0.03 %ID/g and the “Biodistribution Muscle” value (LNCaP tumor xenografts; 4 h p.i.) was 0.08 ± 0.02 %ID/g. The “Biodistribution Prostate” value (LNCaP tumor xenografts; 4 h p.i.) was 1.12 ± 0.16 %ID/g, the “Biodistribution Spleen” value (LNCaP tumor xenografts; 4 h p.i.) was 0.61 ± 0.09 %ID/g and the “Biodistribution Thyroid” value (LNCaP tumor xenografts; 4 h p.i.) was 0.13 ± 0.02 %ID/g. The Tumor/blood ratio (LNCaP tumor xenografts; 24 h p.i.) was 309 ± 89, the Tumor/kidneys ratio (LNCaP tumor xenografts; 24 h p.i.) was 1.0 ± 0.3 and 1.02 ± 0.28 and the Tumor/liver ratio (LNCaP tumor xenografts; 24 h p.i.) was 40.0 ± 1.1. For the same compound, the Tumor/muscle ratio (LNCaP tumor xenografts; 24 h p.i.) was 450 ± 38, the “Biodistribution Blood” value (LNCaP tumor xenografts; 24 h p.i.) was 0.05 ± 0.01 %ID/g and the “Biodistribution Bone” value (LNCaP tumor xenografts; 24 h p.i.) was 0.18 ± 0.02 %ID/g. For the same compound, the “Biodistribution Heart” value (LNCaP tumor xenografts; 24 h p.i.) was 0.09 ± 0.02 %ID/g, the “Biodistribution Intestine” value (LNCaP tumor xenografts; 24 h p.i.) was 0.25 ± 0.08 %ID/g and the “Biodistribution Kidneys” value (LNCaP tumor xenografts; 24 h p.i.) was 15.4 ± 4.1 %ID/g. For the same compound, the “Biodistribution LNCAP-tumor” value (LNCaP tumor xenografts; 24 h p.i.) was 14.9 ± 1.2 %ID/g, the “Biodistribution Liver” value (LNCaP tumor xenografts; 24 h p.i.) was 0.37 ± 0.03 %ID/g and the “Biodistribution Lung” value (LNCaP tumor xenografts; 24 h p.i.) was 0.04 ± 0.01 %ID/g. For the same compound, the “Biodistribution Muscle” value (LNCaP tumor xenografts; 24 h p.i.) was 0.03 ± 0.01 %ID/g, the “Biodistribution Prostate” value (LNCaP tumor xenografts; 24 h p.i.) was 0.50 ± 0.01 %ID/g and the “Biodistribution Spleen” value (LNCaP tumor xenografts; 24 h p.i.) was 0.36 ± 0.08 %ID/g. For the same compound, the “Biodistribution Thyroid” value (LNCaP tumor xenografts; 24 h p.i.) was 0.05 ± 0.01 %ID/g and the “In vivo stability (no time-dependent increase in Zr-89 accumulation in bone)” value (LNCaP tumor xenografts; mice, 24 h or 48 h p.i., biokinetics and small-animal PET) was “convincing in vivo stability”.
